In paper PMC3399817 (PLoS ONE, 2012):

Key:
Experiment in all cases: KINOMEscan
Format in all cases: binding
ACVR1B = biological target: T1, ACVR1B (Homo sapiens, UniProt P36896); conditions: 1 uM
T1 construct: purchased Ambit KINOMEscan (DiscoverX)
Method in brief: (§1)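 Binding assay, no enzymatic read-out; all compounds tested at 1 μM to find kinases whose substrate binding they inhibit.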

MARK1 = biological target: T2, MARK1 (Homo sapiens, UniProt Q9P0L2); conditions: MARK1, 1 uM
T2 construct: purchased Ambit KINOMEscan (DiscoverX)
Method in brief: as §1

FGFR4 = biological target: T3, FGFR4 (Homo sapiens, UniProt P22455); conditions: FGFR4, 1 uM
T3 construct: purchased Ambit KINOMEscan (DiscoverX)
Method in brief: as §1

MLK2 = biological target: T4, MLK2 (Homo sapiens, UniProt Q02779); conditions: MLK2, 1 uM
T4 construct: purchased Ambit KINOMEscan (DiscoverX)
T4 sequence (Q02779 whole entry): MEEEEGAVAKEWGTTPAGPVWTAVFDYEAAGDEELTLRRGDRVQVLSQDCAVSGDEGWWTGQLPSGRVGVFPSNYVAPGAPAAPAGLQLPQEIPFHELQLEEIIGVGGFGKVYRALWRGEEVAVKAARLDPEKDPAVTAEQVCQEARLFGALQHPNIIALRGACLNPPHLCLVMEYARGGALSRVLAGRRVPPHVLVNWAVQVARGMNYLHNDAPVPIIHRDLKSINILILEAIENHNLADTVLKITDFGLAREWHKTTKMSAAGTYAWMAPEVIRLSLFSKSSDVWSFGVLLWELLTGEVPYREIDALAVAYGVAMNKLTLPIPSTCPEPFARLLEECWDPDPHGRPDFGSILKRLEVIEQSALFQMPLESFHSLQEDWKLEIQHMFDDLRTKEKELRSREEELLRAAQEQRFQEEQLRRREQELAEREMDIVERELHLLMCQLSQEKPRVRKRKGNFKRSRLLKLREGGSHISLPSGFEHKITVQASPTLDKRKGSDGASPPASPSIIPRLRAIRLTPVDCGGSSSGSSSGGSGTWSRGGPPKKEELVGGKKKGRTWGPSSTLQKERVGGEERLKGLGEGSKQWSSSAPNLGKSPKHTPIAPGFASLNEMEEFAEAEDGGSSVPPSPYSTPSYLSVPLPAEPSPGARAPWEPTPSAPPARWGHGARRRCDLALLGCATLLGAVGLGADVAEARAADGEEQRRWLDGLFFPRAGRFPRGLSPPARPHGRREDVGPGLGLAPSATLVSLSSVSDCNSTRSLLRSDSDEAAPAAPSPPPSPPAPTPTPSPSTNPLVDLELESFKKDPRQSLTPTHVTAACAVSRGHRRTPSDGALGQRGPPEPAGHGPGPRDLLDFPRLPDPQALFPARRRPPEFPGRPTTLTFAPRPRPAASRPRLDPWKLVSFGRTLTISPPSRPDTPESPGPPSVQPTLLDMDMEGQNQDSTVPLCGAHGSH
Method in brief: as §1

YSK4 = biological target: T5, YSK4 (Homo sapiens, UniProt Q56UN5); conditions: YSK4, 1 uM
T5 construct: purchased Ambit KINOMEscan (DiscoverX)
Method in brief: as §1

PAK1 = biological target: T6, PAK1 (Homo sapiens, UniProt Q13153); conditions: PAK1, 1 uM
T6 construct: purchased Ambit KINOMEscan (DiscoverX)
T6 sequence (Q13153 whole entry): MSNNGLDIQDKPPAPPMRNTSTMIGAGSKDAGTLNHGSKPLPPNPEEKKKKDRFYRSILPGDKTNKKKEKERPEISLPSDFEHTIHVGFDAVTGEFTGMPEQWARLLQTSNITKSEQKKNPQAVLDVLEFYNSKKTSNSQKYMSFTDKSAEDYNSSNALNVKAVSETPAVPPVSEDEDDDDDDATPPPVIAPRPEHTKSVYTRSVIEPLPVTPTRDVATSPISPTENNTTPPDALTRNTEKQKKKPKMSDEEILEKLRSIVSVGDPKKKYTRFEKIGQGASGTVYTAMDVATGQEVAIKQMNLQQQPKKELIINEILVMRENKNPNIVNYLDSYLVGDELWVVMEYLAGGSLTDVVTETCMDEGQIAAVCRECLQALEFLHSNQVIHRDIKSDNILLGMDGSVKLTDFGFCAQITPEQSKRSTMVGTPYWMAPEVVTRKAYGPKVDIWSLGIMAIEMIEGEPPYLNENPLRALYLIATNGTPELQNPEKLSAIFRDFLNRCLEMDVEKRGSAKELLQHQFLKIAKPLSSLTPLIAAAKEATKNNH
Method in brief: as §1

MST2 = biological target: T7, MST2 (Homo sapiens, UniProt Q13188); conditions: MST2, 1 uM
T7 construct: purchased Ambit KINOMEscan (DiscoverX)
T7 sequence (Q13188 whole entry): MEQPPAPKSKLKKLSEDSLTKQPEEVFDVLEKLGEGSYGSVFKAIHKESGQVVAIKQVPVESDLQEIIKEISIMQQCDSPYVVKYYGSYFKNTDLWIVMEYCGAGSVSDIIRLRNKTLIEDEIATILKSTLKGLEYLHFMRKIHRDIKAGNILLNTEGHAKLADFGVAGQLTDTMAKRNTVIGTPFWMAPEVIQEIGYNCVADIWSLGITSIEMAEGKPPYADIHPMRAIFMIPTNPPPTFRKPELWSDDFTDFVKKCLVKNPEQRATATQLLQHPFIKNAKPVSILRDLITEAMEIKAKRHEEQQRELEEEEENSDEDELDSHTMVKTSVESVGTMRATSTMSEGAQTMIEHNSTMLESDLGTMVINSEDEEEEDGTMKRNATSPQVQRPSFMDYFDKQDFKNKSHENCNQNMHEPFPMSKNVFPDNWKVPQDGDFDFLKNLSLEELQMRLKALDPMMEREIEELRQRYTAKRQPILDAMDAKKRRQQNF
Method in brief: as §1

NLK = biological target: T8, NLK (Homo sapiens, UniProt Q9UBE8); conditions: 1 uM
T8 construct: purchased Ambit KINOMEscan (DiscoverX)
Method in brief: as §1

ERK8 = biological target: T9, ERK8 (Homo sapiens, UniProt Q8TD08); conditions: ERK8, 1 uM
T9 construct: purchased Ambit KINOMEscan (DiscoverX)
Method in brief: as §1

ACVR2A = biological target: T10, ACVR2A (Homo sapiens, UniProt P27037); conditions: 1 uM
T10 construct: purchased Ambit KINOMEscan (DiscoverX)
T10 sequence (P27037 20-513): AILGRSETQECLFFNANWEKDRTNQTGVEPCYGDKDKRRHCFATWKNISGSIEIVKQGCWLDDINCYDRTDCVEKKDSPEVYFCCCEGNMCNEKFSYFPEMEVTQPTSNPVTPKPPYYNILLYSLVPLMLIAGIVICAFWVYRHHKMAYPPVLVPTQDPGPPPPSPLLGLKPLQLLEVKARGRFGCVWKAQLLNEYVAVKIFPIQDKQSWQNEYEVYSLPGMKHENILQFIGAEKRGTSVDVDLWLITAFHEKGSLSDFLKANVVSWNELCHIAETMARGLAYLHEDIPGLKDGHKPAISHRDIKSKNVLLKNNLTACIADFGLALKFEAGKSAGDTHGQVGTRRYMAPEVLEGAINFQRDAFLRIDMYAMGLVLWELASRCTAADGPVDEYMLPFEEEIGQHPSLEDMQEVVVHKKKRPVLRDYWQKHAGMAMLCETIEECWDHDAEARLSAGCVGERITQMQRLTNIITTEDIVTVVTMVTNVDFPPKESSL
Method in brief: as §1

SBK1 = biological target: T11, SBK1 (Homo sapiens, UniProt Q52WX2); conditions: SBK1, 1 uM
T11 construct: purchased Ambit KINOMEscan (DiscoverX)
T11 sequence (Q52WX2 whole entry): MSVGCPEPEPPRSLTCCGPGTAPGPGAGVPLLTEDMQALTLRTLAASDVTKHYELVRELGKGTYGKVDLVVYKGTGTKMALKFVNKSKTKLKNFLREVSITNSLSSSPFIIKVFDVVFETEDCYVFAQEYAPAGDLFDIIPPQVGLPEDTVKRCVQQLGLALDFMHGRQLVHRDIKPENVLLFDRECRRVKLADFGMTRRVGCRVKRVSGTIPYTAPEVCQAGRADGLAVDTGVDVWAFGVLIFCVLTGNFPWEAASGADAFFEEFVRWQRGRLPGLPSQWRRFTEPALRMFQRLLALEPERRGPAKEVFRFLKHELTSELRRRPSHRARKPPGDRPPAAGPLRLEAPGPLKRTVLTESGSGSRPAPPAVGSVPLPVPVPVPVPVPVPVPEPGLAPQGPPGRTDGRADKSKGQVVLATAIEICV
Method in brief: as §1

EPHB3 = biological target: T12, EPHB3 (Homo sapiens, UniProt P54753); conditions: EPHB3, 1 uM
T12 construct: purchased Ambit KINOMEscan (DiscoverX)
Method in brief: as §1

DRAK1 = biological target: T13, DRAK1 (Homo sapiens, UniProt Q9UEE5); conditions: DRAK1, 1 uM
T13 construct: purchased Ambit KINOMEscan (DiscoverX)
T13 sequence (Q9UEE5 whole entry): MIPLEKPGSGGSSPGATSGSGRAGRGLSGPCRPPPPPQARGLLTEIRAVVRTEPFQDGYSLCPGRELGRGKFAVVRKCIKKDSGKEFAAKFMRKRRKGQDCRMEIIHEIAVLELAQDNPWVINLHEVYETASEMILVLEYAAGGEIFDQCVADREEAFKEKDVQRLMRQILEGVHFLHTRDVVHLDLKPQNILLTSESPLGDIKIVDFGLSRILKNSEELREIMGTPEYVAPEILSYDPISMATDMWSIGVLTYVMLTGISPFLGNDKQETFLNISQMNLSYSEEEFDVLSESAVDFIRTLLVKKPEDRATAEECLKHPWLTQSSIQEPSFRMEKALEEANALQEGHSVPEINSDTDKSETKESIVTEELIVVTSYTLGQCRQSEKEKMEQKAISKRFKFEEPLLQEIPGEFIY
Method in brief: as §1

PRKR = biological target: T14, PRKR (Homo sapiens, UniProt P19525); conditions: 1 uM
T14 construct: purchased Ambit KINOMEscan (DiscoverX)
Method in brief: as §1

NEK1 = biological target: T15, NEK1 (Homo sapiens, UniProt Q96PY6); conditions: for % binding compared to no inhibitor control: NEK1, 1 uM
T15 construct: purchased Ambit KINOMEscan (DiscoverX)
T15 sequence (Q96PY6 1-1258): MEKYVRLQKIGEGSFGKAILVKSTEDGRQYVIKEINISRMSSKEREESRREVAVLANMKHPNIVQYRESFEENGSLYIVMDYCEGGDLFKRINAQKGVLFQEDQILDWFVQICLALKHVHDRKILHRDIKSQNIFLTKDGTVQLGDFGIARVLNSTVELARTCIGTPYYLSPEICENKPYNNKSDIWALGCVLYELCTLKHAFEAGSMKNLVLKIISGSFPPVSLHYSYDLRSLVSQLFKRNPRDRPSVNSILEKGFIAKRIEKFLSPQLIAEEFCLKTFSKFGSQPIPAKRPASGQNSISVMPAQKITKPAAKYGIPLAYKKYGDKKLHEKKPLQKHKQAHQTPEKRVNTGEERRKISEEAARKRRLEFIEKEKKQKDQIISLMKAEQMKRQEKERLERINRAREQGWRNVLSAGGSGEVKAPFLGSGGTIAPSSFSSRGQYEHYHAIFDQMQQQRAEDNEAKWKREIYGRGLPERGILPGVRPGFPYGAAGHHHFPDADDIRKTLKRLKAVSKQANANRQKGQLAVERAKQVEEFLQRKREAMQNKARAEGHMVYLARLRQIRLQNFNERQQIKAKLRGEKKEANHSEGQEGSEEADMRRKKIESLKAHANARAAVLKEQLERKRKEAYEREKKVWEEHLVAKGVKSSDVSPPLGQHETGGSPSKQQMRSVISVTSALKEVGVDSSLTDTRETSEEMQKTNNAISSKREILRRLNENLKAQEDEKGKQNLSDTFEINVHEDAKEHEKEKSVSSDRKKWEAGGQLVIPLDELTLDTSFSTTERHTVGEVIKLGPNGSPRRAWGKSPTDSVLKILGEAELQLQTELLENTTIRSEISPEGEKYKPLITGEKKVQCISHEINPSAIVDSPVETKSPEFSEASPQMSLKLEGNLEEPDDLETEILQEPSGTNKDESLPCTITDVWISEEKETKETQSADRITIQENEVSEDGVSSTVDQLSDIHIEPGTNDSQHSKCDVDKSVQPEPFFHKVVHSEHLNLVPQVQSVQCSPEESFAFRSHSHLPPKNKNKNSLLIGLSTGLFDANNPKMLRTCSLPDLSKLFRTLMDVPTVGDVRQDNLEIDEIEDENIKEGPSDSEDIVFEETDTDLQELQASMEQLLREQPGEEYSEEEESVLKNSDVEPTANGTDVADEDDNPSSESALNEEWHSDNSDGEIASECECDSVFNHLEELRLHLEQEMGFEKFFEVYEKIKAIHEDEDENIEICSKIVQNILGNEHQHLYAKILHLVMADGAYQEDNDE
Method in brief: as §1

LIMK2 = biological target: T16, LIMK2 (Homo sapiens, UniProt P53671); conditions: LIMK2, 1 uM
T16 construct: purchased Ambit KINOMEscan (DiscoverX)
Method in brief: as §1

AURKC = biological target: T17, AURKC (Homo sapiens, UniProt Q9UQB9); conditions: 1 uM
T17 construct: purchased Ambit KINOMEscan (DiscoverX)
T17 sequence (Q9UQB9 whole entry): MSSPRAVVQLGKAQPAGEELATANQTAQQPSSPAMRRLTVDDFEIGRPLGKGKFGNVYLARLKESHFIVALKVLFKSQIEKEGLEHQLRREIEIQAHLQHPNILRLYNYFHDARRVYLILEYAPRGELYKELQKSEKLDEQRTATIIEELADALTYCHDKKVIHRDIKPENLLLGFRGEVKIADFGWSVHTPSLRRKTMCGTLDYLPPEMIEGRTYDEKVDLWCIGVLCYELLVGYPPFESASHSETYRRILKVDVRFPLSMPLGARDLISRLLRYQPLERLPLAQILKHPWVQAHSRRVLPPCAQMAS
Method in brief: as §1

PIK3CA(E545K) = biological target: T18, PIK3CA(E545K) (Homo sapiens, UniProt P42336, E545K); conditions: 1 uM
T18 construct: purchased Ambit KINOMEscan (DiscoverX)
T18 sequence (P42336 whole entry E545K): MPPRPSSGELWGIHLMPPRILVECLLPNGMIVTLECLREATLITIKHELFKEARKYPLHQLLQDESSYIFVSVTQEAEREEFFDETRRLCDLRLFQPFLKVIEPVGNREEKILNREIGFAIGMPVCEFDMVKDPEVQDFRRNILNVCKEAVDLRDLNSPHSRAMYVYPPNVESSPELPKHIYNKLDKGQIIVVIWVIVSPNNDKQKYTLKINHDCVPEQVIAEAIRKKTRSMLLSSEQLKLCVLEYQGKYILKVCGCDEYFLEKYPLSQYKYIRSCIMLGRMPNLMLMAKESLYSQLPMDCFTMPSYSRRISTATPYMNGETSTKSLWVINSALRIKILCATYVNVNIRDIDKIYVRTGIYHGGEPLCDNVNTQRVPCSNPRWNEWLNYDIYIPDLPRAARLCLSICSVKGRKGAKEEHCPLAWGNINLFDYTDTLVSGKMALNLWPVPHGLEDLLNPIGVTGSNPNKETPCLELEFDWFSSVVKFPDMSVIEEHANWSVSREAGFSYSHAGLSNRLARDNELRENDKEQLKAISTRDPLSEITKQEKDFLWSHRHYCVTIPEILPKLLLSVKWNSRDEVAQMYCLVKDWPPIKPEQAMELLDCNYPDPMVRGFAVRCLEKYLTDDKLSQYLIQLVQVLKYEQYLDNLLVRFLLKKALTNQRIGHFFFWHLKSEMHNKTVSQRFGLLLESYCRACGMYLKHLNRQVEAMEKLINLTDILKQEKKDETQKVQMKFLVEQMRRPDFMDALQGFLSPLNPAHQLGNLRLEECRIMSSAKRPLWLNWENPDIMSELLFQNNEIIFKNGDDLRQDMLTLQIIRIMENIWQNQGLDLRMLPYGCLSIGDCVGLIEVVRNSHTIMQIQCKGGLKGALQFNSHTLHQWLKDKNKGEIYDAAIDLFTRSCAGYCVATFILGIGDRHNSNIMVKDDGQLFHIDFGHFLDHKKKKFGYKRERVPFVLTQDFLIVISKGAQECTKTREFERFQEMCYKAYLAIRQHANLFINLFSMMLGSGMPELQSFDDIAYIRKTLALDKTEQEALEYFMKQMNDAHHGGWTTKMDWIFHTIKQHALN
Method in brief: as §1

FYN = biological target: T19, FYN (Homo sapiens, UniProt P06241); conditions: 1 uM
T19 construct: purchased Ambit KINOMEscan (DiscoverX)
Method in brief: as §1

SNARK = biological target: T20, SNARK (Homo sapiens, UniProt Q9H093); conditions: 1 uM
T20 construct: purchased Ambit KINOMEscan (DiscoverX)
Method in brief: as §1

GAK = biological target: T21, GAK (Homo sapiens, UniProt O14976); conditions: 1 uM
T21 construct: purchased Ambit KINOMEscan (DiscoverX)
Method in brief: as §1

EPHA3 = biological target: T22, EPHA3 (Homo sapiens, UniProt P29320); conditions: EPHA3, 1 uM
T22 construct: purchased Ambit KINOMEscan (DiscoverX)
Method in brief: as §1

TAOK1 = biological target: T23, TAOK1 (Homo sapiens, UniProt Q7L7X3); conditions: TAOK1, 1 uM
T23 construct: purchased Ambit KINOMEscan (DiscoverX)
Method in brief: as §1

MAP3K4 = biological target: T24, MAP3K4 (Homo sapiens, UniProt Q9Y6R4); conditions: MAP3K4, 1 uM
T24 construct: purchased Ambit KINOMEscan (DiscoverX)
Method in brief: as §1

In the case of `COc1ccc(-c2cc3nccn3c(Nc3ncccc3C(N)=O)n2)cc1OC.Cl.Cl` [BAY61-3606, 2-[7-(3,4-dimethoxyphenyl)-imidazo [1,2-c]pyrimidin-5-ylamino] nicotinamide dihydrochloride, reference compound], the “% binding compared to no inhibitor control” value (ACVR1B) is reported as 100%, the “% binding compared to no inhibitor control” value (MARK1) is reported as 100% and the “% binding compared to no inhibitor control” value (FGFR4) is reported as 100%. The “% binding compared to no inhibitor control” value (MLK2) was 91%, the “% binding compared to no inhibitor control” value (YSK4) was 1.8% and the “% binding compared to no inhibitor control” value (PAK1) was 94%. The “% binding compared to no inhibitor control” value (MST2) was 97%, the “% binding compared to no inhibitor control” value (NLK) was 88% and the “% binding compared to no inhibitor control” value (ERK8) was 92%. The “% binding compared to no inhibitor control” value (ACVR2A) was 100%, the “% binding compared to no inhibitor control” value (SBK1) was 96% and the “% binding compared to no inhibitor control” value (EPHB3) was 98%. The “% binding compared to no inhibitor control” value (DRAK1) was 57%, the “% binding compared to no inhibitor control” value (PRKR) was 27% and the “% binding compared to no inhibitor control” value (NEK1) was 27%. For the same compound, the “% inhibition ATP binding” value (NEK1; NEK1, KINOMEscan, 1 μM) was 73%, the “% binding compared to no inhibitor control” value (LIMK2) was 98% and the “% binding compared to no inhibitor control” value (AURKC) was 92%. The “% binding compared to no inhibitor control” value (PIK3CA(E545K)) was 100%, the “% binding compared to no inhibitor control” value (FYN) was 100% and the “% binding compared to no inhibitor control” value (SNARK) was 32%. The “% binding compared to no inhibitor control” value (GAK) was 30%, the “% binding compared to no inhibitor control” value (EPHA3) was 83% and the “% binding compared to no inhibitor control” value (TAOK1) was 95%. The “% binding compared to no inhibitor control” value (MAP3K4) was 100%.

For `COc1ccccc1Nc1nc(-c2ccc(OC)c(OC)c2)cc2nccn12` [BAY derivative 6], the “% binding compared to no inhibitor control” value (ACVR1B) was 100%, the “% binding compared to no inhibitor control” value (MARK1) was 100% and the “% binding compared to no inhibitor control” value (FGFR4) was 100%. The “% binding compared to no inhibitor control” value (MLK2) was 100%, the “% binding compared to no inhibitor control” value (YSK4) was 60% and the “% binding compared to no inhibitor control” value (PAK1) was 83%. The “% binding compared to no inhibitor control” value (MST2) was 82%, the “% binding compared to no inhibitor control” value (NLK) was 82% and the “% binding compared to no inhibitor control” value (ERK8) was 98%. For the same compound, the “% binding compared to no inhibitor control” value (ACVR2A) was 100%, the “% binding compared to no inhibitor control” value (SBK1) was 100% and the “% binding compared to no inhibitor control” value (EPHB3) was 84%. For the same compound, the “% binding compared to no inhibitor control” value (DRAK1) was 100%, the “% binding compared to no inhibitor control” value (PRKR) was 100% and the “% binding compared to no inhibitor control” value (NEK1) was 91%. For the same compound, the “% binding compared to no inhibitor control” value (LIMK2) was 89%, the “% binding compared to no inhibitor control” value (AURKC) was 100% and the “% binding compared to no inhibitor control” value (PIK3CA(E545K)) was 100%. The “% binding compared to no inhibitor control” value (FYN) was 61%, the “% binding compared to no inhibitor control” value (SNARK) was 89% and the “% binding compared to no inhibitor control” value (GAK) was 43%. For the same compound, the “% binding compared to no inhibitor control” value (EPHA3) was 100%, the “% binding compared to no inhibitor control” value (TAOK1) was 100% and the “% binding compared to no inhibitor control” value (MAP3K4) was 99%.
